In US20250186408A1, “TREATMENT OF PHARMACORESISTANT EPILEPSY” (Katholieke Universiteit Leuven, priority 2021, published 2025):

What was measured:
Type in all cases: cell-based
[1] = target: T1, GR (Homo sapiens, UniProt P04150); experiment: NHR Protein Interaction GR Antagonist
T1 construct: enzyme fragment for PathHunter enzyme fragment complementation (EFC)
T1 sequence (P04150 1-777): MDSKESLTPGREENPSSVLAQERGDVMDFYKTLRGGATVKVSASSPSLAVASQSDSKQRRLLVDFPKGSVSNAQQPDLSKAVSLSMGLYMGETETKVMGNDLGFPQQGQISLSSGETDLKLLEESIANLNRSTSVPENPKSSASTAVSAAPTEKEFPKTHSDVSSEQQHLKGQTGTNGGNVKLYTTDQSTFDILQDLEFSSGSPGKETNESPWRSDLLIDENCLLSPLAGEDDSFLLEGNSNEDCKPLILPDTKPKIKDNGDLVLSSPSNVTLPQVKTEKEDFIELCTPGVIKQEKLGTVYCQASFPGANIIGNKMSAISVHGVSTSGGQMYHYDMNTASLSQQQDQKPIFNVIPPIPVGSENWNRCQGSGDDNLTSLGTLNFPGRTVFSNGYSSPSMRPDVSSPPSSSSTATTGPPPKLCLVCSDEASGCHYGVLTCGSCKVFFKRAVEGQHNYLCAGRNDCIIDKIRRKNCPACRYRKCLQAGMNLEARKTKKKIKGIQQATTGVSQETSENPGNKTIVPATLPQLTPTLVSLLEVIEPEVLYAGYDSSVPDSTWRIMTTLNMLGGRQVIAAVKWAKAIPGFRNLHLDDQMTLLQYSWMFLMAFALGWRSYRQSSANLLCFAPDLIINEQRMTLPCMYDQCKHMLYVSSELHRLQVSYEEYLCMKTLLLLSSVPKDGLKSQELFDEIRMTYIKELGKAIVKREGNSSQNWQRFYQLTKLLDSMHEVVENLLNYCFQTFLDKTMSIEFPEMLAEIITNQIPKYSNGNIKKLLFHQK
Protocol: (§1) In vitro pharmacological profiling of compounds was done against 78 functional assays for 47 common off-targets (30) by Eurofins DiscoverX Corporation (Fremont, CA, USA) using their SAFETYscan E/IC50 ELECT service (Cat Ref 87-1003DR, Safety47 Panel Dose Response). The following assays were performed: (1) GPCR cAMP modulation, (2) calcium mobilization, (3) nuclear hormone receptor assays, (4) KINOMEscan binding assays, (5) ion channel assays, (6) transporter assays and (7) enzymatic assays. Compounds were tested in a range of 10 concentrations, following a 3-fold serial dilution, starting from 10 μM. The assays were performed utilizing the PathHunter enzyme fragment complementation (EFC) technology, FLIPR®-based cellular screening assays, and KINOMEscan kinase binding assays.
(§2) Prior to testing, PathHunter NHR cell lines were expanded from freezer stocks and cells were seeded in a total volume of 20 μL into white walled 384-well microplates and incubated at 37° C. […] Microplates were read following signal generation with a PerkinElmer Envision™ instrument for chemiluminescent signal detection. Compound activity was analysed using CBIS data analysis suite (ChemInnovation, CA). For agonist mode assays, percentage activity was calculated using the following equation:

[2] = target: T1, GR; experiment: NHR Protein Interaction GR Agonist
Protocol: as §1, §2

[3] = target: T2, AR (Homo sapiens, UniProt P10275); experiment: NHR Nuclear Translocation AR Antagonist
T2 construct: enzyme fragment for PathHunter enzyme fragment complementation (EFC)
T2 sequence (P10275 1-920): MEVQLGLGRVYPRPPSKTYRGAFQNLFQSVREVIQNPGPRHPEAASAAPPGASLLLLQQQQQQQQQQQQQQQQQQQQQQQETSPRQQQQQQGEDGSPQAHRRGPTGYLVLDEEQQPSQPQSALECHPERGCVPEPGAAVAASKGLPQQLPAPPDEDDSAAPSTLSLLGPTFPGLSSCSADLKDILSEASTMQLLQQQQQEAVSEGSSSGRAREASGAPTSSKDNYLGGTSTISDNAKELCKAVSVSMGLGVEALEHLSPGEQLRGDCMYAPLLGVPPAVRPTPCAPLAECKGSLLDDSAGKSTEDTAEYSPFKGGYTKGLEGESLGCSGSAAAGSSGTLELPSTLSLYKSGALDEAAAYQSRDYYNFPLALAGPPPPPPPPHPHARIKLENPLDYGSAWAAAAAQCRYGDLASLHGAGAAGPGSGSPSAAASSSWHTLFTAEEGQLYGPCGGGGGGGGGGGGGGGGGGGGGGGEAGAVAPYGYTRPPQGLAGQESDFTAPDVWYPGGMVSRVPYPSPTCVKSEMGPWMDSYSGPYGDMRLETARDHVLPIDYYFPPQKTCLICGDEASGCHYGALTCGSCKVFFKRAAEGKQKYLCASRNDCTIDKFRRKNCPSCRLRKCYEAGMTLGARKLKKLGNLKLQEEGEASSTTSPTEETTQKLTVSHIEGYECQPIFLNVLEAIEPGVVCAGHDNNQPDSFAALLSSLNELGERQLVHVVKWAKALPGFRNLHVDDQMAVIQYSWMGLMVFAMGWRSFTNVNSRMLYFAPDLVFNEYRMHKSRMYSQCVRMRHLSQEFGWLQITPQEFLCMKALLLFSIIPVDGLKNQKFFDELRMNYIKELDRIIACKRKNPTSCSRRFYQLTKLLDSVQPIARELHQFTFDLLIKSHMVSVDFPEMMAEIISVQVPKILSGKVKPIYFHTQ
Protocol: as §1, §2

Structure (SMILES): Clc1cccc(C#Cc2n[nH]c3ncccc23)c1 [Compound 10.1, 3-((3-chlorophenyl)ethynyl)-1H-pyrazolo[3,4-b]pyridine]
- Emax ([1]; read-out: Max response): 2.6%
- IC50 ([1]; read-out: RC50, result type IC50): > 10 µM
- Emax ([2]; read-out: Max response): 0%
- EC50 ([2]; read-out: RC50, result type EC50): > 10 µM
- IC50 [3]: > 10 µM
- Emax ([3]; NHR Nuclear Translocation AR Antagonist, read-out: Max response): 4.6%
